Positions of bridges follow the written chain, without caps; N, C: chain ends. Non-standard residues stand in square brackets, D forms with d. Residues, ends and D or L forms follow the SMILES beside them. Trp(1-CH2COOH) = N[C@@H](Cc1cn(CC(=O)O)c2ccccc12)C(=O)O; Phe(4-Cl) = N[C@@H](Cc1ccc(Cl)cc1)C(=O)O; Phe(4-F) = N[C@@H](Cc1ccc(F)cc1)C(=O)O; Hyp = O=C(O)[C@@H]1C[C@@H](O)CN1; Aad = N[C@@H](CCCC(=O)O)C(=O)O; NMeNle = CCCC[C@H](NC)C(=O)O; Pip = O=C(O)[C@@H]1CCCCN1; NMeA = CN[C@@H](C)C(=O)O; Orn = NCCC[C@H](N)C(=O)O; Dab = NCC[C@H](N)C(=O)O; Dap = NC[C@H](N)C(=O)O; Ava = NCCCCC(=O)O; βAla = NCCC(=O)O
Target: T1, PD-1-Ig binding to PD-L1-TVMV-His (PD-L1-His) (Homo sapiens, UniProt Q9NZQ7)
T1 construct: hPDL1(19-239)-TVMV-His; made in house; host or cells: HEK293T cells
Experiment: PD-1/PD-L1 Homogenous Time-Resolved Fluorescence (HTRF) binding assay
Settings: PD-1-Ig (20 nM) / PD-L1-His (10 nM); numeric values
Method in brief: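 HTRF competition: compound pre-incubated 15 min with PD-L1-His (10 nM final), then PD-1-Ig (20 nM final) added for 15 min in dPBS, 0.1% BSA, 0.05% Tween-20. Detection with Eu-cryptate anti-Ig (1 nM) and APC anti-His (20 nM) antibodies.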

T1 sequence (Q9NZQ7 with tags, fused parts or gaps): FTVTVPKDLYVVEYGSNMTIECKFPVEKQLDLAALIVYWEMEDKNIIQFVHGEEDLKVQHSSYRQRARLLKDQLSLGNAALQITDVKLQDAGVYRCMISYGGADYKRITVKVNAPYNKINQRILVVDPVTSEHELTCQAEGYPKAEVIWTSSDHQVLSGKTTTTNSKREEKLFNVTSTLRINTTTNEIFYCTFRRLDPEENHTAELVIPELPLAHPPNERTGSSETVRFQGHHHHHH

`CCCC[C@H]1C(=O)N(C)[C@@H](CCCC)C(=O)N[C@@H](CCC(=O)O)C(=O)N[C@H](C(=O)NCC(N)=O)CNCC(=O)N[C@@H](Cc2ccc(F)cc2)C(=O)N(C)[C@@H](C)C(=O)N[C@@H](CC(N)=O)C(=O)N2CCC[C@H]2C(=O)N[C@@H](CCC(N)=O)C(=O)N[C@@H](CCC(N)=O)C(=O)N2C[C@H](O)C[C@H]2C(=O)N[C@@H](Cc2c[nH]c3ccccc23)C(=O)N[C@@H](CC(N)=O)C(=O)N[C@@H](Cc2cn(CC(=O)O)c3ccccc23)C(=O)N1C` [Example 9025] gave an IC50 of 16 nM.

Same assay, conditions: PD-1-Ig (20 nM) / PD-L1-His (10 nM); range classes

`CCCC[C@H]1C(=O)N(C)[C@@H](CCCC)C(=O)N[C@@H](CCC(=O)O)C(=O)N[C@H](C(N)=O)CNCC(=O)N[C@@H](Cc2ccc(F)cc2)C(=O)N2CCCC[C@H]2C(=O)N[C@@H](CC(N)=O)C(=O)N2CCC[C@H]2C(=O)N[C@@H](Cc2c[nH]cn2)C(=O)N[C@@H](CCC(=O)O)C(=O)N2C[C@H](O)C[C@H]2C(=O)N[C@@H](Cc2c[nH]c3ccccc23)C(=O)N[C@@H](C)C(=O)N[C@@H](Cc2cn(CC(=O)O)c3ccccc23)C(=O)N1C` [Example 9058] and `CCCC[C@H]1C(=O)N(C)[C@@H](CCCC)C(=O)N[C@@H](CC(C)C)C(=O)N[C@H](C(N)=O)CNCC(=O)N[C@@H](Cc2ccc(O)cc2)C(=O)N2CCCC[C@H]2C(=O)N[C@@H](CC(N)=O)C(=O)N2CCC[C@H]2C(=O)N[C@@H](Cc2c[nH]cn2)C(=O)N[C@@H](CC(=O)O)C(=O)N2C[C@H](O)C[C@H]2C(=O)N[C@@H](Cc2c[nH]c3ccccc23)C(=O)N[C@@H](C)C(=O)N[C@@H](Cc2cn(CC(=O)O)c3ccccc23)C(=O)N1C` [Example 9049] fall in the same range of IC50: 1 to 9.9 nM for the first, 1 to 9.9 nM for the second.

Compared with `CCCC[C@H]1C(=O)N(C)[C@@H](CCCC)C(=O)N[C@@H](CC(C)C)C(=O)NCCCCC(=O)N[C@@H](Cc2ccc(Cl)cc2)C(=O)N2CCCC[C@H]2C(=O)N[C@@H](CC(N)=O)C(=O)N2CCC[C@H]2C(=O)N[C@@H](CN)C(=O)N[C@@H](CC(C)C)C(=O)N2C[C@H](O)C[C@H]2C(=O)N[C@@H](Cc2c[nH]c3ccccc23)C(=O)N[C@@H](CCN)C(=O)N[C@@H](Cc2cn(CC(=O)O)c3ccccc23)C(=O)N1C` [Example 10537] (cyclo([Ava][Phe(4-Cl)][Pip]NP[Dap]L[Hyp]W[Dab][Trp(1-CH2COOH)][NMeNle][NMeNle]L)), `CCCC[C@H]1C(=O)N(C)[C@@H](CCCC)C(=O)N[C@@H](CC(C)C)C(=O)NCCCCC(=O)N[C@@H](Cc2ccc(Cl)cc2)C(=O)N2CCCC[C@H]2C(=O)N[C@@H](CC(N)=O)C(=O)N2CCC[C@H]2C(=O)N[C@@H](CN)C(=O)N[C@@H](CCC(=O)O)C(=O)N2C[C@H](O)C[C@H]2C(=O)N[C@@H](Cc2c[nH]c3ccccc23)C(=O)N[C@@H](CCN)C(=O)N[C@@H](Cc2cn(CC(=O)O)c3ccccc23)C(=O)N1C` [Example 10544] (cyclo([Ava][Phe(4-Cl)][Pip]NP[Dap]E[Hyp]W[Dab][Trp(1-CH2COOH)][NMeNle][NMeNle]L)) is lower in IC50: 10 to 99 nM for the first, 1 to 9.9 nM for the second. The second is the more potent here.

First: CCCC[C@H]1C(=O)N(C)[C@@H](CCCC)C(=O)N[C@@H](CCC(=O)O)C(=O)N[C@H](C(N)=O)CNCC(=O)N[C@@H](Cc2ccc(O)cc2)C(=O)N2CCCC[C@H]2C(=O)N[C@@H](CC(N)=O)C(=O)N2CCC[C@H]2C(=O)N[C@@H](CCC(N)=O)C(=O)N[C@@H](CC(C)C)C(=O)N2C[C@H](O)C[C@H]2C(=O)N[C@@H](Cc2c[nH]c3ccccc23)C(=O)N[C@@H](CC(N)=O)C(=O)N[C@@H](Cc2cn(CC(=O)O)c3ccccc23)C(=O)N1C [Example 9042]
Second: CCCC[C@H]1C(=O)N(C)[C@@H](CCCC)C(=O)N[C@@H](CC(C)C)C(=O)N[C@H](C(=O)NCC(N)=O)CNCC(=O)N[C@@H](Cc2ccc(O)cc2)C(=O)N(C)[C@@H](C)C(=O)N[C@@H](CC(=O)O)C(=O)N2CCC[C@H]2C(=O)N[C@@H](CCC(N)=O)C(=O)N[C@@H](CC(=O)O)C(=O)N2C[C@H](O)C[C@H]2C(=O)N[C@@H](Cc2c[nH]c3ccccc23)C(=O)N[C@@H](CC(N)=O)C(=O)N[C@@H](Cc2cn(CC(=O)O)c3ccccc23)C(=O)N1C [Example 9013]
The IC50 of the first is lower: 1 to 9.9 nM for the first, 10 to 99 nM for the second.

Compared with `CCCC[C@H]1C(=O)N(C)[C@@H](CCCC)C(=O)NC(CC(C)C)C(=O)N[C@H](C(=O)NCC(N)=O)CNCC(=O)N[C@@H](Cc2ccc(O)cc2)C(=O)N(C)[C@@H](C)C(=O)N[C@@H](CC(N)=O)C(=O)N2CCC[C@H]2C(=O)N[C@@H](CC(N)=O)C(=O)N[C@@H](CC(C)C)C(=O)N2C[C@H](O)C[C@H]2C(=O)N[C@@H](Cc2c[nH]c3ccccc23)C(=O)N[C@@H](CC(N)=O)C(=O)N[C@@H](Cc2c[nH]c3ccccc23)C(=O)N1C` (some centres unmarked) [Example 10001], `CCCC[C@H]1C(=O)N(C)[C@@H](CCCC)C(=O)N[C@@H](CC(C)C)C(=O)N[C@H](C(=O)NCC(N)=O)CNCC(=O)N[C@@H](Cc2ccc(O)cc2)C(=O)N(C)[C@@H](C)C(=O)N[C@@H](CC(N)=O)C(=O)N2CCC[C@H]2C(=O)N[C@@H](Cc2cnc[nH]2)C(=O)N[C@@H](CC(C)C)C(=O)N2C[C@H](O)C[C@H]2C(=O)N[C@@H](Cc2c[nH]c3ccccc23)C(=O)NCC(=O)N[C@@H](Cc2c[nH]c3ccccc23)C(=O)N1C` [Example 10026] is higher in IC50: 1 to 9.9 nM for the first, 10 to 99 nM for the second. The first is the more potent here.

`CCCC[C@H]1C(=O)N(C)[C@@H](CCCC)C(=O)N[C@@H](CC(C)C)C(=O)N[C@H](C(N)=O)CCCC(=O)N[C@@H](Cc2ccc(F)cc2)C(=O)N2CCCC[C@H]2C(=O)N[C@@H](CC(N)=O)C(=O)N2CCC[C@H]2C(=O)N[C@@H](CN)C(=O)N[C@@H](CC(C)C)C(=O)N2C[C@H](O)C[C@H]2C(=O)N[C@@H](Cc2c[nH]c3ccccc23)C(=O)N[C@@H](CCN)C(=O)N[C@@H](Cc2cn(CC(=O)O)c3ccccc23)C(=O)N1C` [Example 10526] ([Phe(4-F)][Pip]NP[Dap]L[Hyp]W[Dab][Trp(1-CH2COOH)][NMeNle][NMeNle]L[Aad]-NH2; lactam N-14) and `CCCC[C@H]1C(=O)N(C)[C@@H](CCCC)C(=O)N[C@@H](CC(C)C)C(=O)N[C@H](C(=O)NCC(N)=O)CCCC(=O)N[C@@H](Cc2ccc(O)cc2)C(=O)N2CCCC[C@H]2C(=O)N[C@@H](CC(N)=O)C(=O)N2CCC[C@H]2C(=O)N[C@@H](CN)C(=O)N[C@@H](CC(C)C)C(=O)N2C[C@H](O)C[C@H]2C(=O)N[C@@H](Cc2c[nH]c3ccccc23)C(=O)N[C@@H](CCN)C(=O)N[C@@H](Cc2cn(CC(=O)O)c3ccccc23)C(=O)N1C` [Example 10515] (Y[Pip]NP[Dap]L[Hyp]W[Dab][Trp(1-CH2COOH)][NMeNle][NMeNle]L[Aad]G-NH2; lactam N-14) fall in the same range of IC50: 10 to 99 nM for the first, 10 to 99 nM for the second.

`CCCC[C@H]1C(=O)N(C)[C@@H](CCCC)C(=O)N[C@@H](CC(C)C)C(=O)N[C@H](C(=O)NCC(N)=O)CNCC(=O)N[C@@H](Cc2ccc(OC)cc2)C(=O)N(C)[C@@H](C)C(=O)N[C@@H](CC(N)=O)C(=O)N2CCC[C@H]2C(=O)N[C@@H](CN)C(=O)N[C@@H](CCC(=O)O)C(=O)N2C[C@H](O)C[C@H]2C(=O)N[C@@H](Cc2c[nH]c3ccccc23)C(=O)N[C@@H](CCN)C(=O)N[C@@H](Cc2cn(CC(=O)O)c3ccccc23)C(=O)N1C` [Example 1041] and `CCCC[C@H]1C(=O)N(C)[C@@H](CCCC)C(=O)N[C@@H](CC(C)C)C(=O)N[C@H](C(=O)NCC(N)=O)CCCC(=O)N[C@@H](Cc2ccc(O)cc2)C(=O)N(C)[C@@H](C)C(=O)N[C@@H](CC(N)=O)C(=O)N2CCC[C@H]2C(=O)N[C@@H](CN)C(=O)N[C@@H](CCC(=O)O)C(=O)N2C[C@H](O)C[C@H]2C(=O)N[C@@H](Cc2c[nH]c3ccccc23)C(=O)N[C@@H](CCN)C(=O)N[C@@H](Cc2cn(CC(=O)O)c3ccccc23)C(=O)N1C` [Example 10507] (Y[NMeA]NP[Dap]E[Hyp]W[Dab][Trp(1-CH2COOH)][NMeNle][NMeNle]L[Aad]G-NH2; lactam N-14) fall in the same range of IC50: 1 to 9.9 nM for the first, 1 to 9.9 nM for the second.

`CCCC[C@H]1C(=O)N(C)[C@@H](CCCC)C(=O)N[C@@H](CC(C)C)C(=O)NCCC(=O)N[C@@H](Cc2ccc(O)cc2)C(=O)N(C)[C@@H](C)C(=O)N[C@@H](CC(N)=O)C(=O)N2CCC[C@H]2C(=O)N[C@@H](Cc2c[nH]cn2)C(=O)N[C@@H](CC(C)C)C(=O)N2C[C@H](O)C[C@H]2C(=O)N[C@@H](Cc2c[nH]c3ccccc23)C(=O)NCC(=O)N[C@@H](Cc2c[nH]c3ccccc23)C(=O)N1C` [Example 5003] (cyclo(GW[NMeNle][NMeNle]L[βAla]Y[NMeA]NPHL[Hyp]W)) and `CCCC[C@H]1C(=O)N(C)[C@@H](CCCC)C(=O)N[C@@H](CO)C(=O)N[C@H](C(=O)NCC(N)=O)CCCNCC(=O)N[C@@H](Cc2ccc(O)cc2)C(=O)N(C)[C@@H](C)C(=O)N[C@@H](CC(N)=O)C(=O)N2CCC[C@H]2C(=O)N[C@@H](Cc2cnc[nH]2)C(=O)N[C@@H](CCC(N)=O)C(=O)N2C[C@H](O)C[C@H]2C(=O)N[C@@H](Cc2c[nH]c3ccccc23)C(=O)N[C@@H](CO)C(=O)N[C@@H](Cc2c[nH]c3ccccc23)C(=O)N1C` [Example 10025] fall in the same range of IC50: 100 to 10000 nM for the first, 100 to 10000 nM for the second.

First: CCCC[C@H]1C(=O)N(C)[C@@H](CCCC)C(=O)N[C@@H](CC(C)C)C(=O)NCCC[C@H](N)C(=O)N[C@@H](Cc2ccc(O)cc2)C(=O)N2CCCC[C@H]2C(=O)N[C@@H](CC(N)=O)C(=O)N2CCC[C@H]2C(=O)N[C@@H](CN)C(=O)N[C@@H](CCC(=O)O)C(=O)N2C[C@H](O)C[C@H]2C(=O)N[C@@H](Cc2c[nH]c3ccccc23)C(=O)N[C@@H](CCN)C(=O)N[C@@H](Cc2cn(CC(=O)O)c3ccccc23)C(=O)N1C [Example 10549] (H-[Orn]Y[Pip]NP[Dap]E[Hyp]W[Dab][Trp(1-CH2COOH)][NMeNle][NMeNle]L; lactam 1-C)
Second: CCCC[C@H]1C(=O)N(C)[C@@H](CCCC)C(=O)N[C@@H](CC(C)C)C(=O)N[C@H](C(N)=O)COCC(=O)N[C@@H](Cc2ccc(O)cc2)C(=O)N2CCCC[C@H]2C(=O)N[C@@H](CC(N)=O)C(=O)N2CCC[C@H]2C(=O)N[C@@H](CN)C(=O)N[C@@H](CC(C)C)C(=O)N2C[C@H](O)C[C@H]2C(=O)N[C@@H](Cc2c[nH]c3ccccc23)C(=O)N[C@@H](CCN)C(=O)N[C@@H](Cc2cn(CC(=O)O)c3ccccc23)C(=O)N1C [Example 10533]
The IC50 of the first is higher: 10 to 99 nM for the first, 1 to 9.9 nM for the second.
